Reference: publication PMC9603521, “WYBQ-4: a New Bactericidal Agent against Methicillin-Resistant Staphylococcus aureus” (Microbiology Spectrum, 2022)
Read-outs that look alike come from different tables or passages of the source.

Key:
[1] = system: MSSA ATCC 29213; assay: Postantibiotic effect (viable plate count); format: cell-based, Staphylococcus aureus; conditions: 1 h exposure
Description: The postantibiotic effect (PAE) of WYBQ-4 against MSSA 29213 was determined in MHB agar using the viable plate count method ([39]). […] After incubation at 37°C for 1 h, WYBQ-4 was removed by centrifugation and washing with phosphate-buffered saline (PBS). Subsequently, fresh MHB medium was added to resuspend the bacteria, and the mixture was incubated at 37°C with shaking. The number of colonies was counted by taking 10 μL of bacteria at 1-h intervals and applying them to BHI agar plates after appropriate dilution. PAE duration was calculated as follows: time (h) for bacteria to return to log-phase growth after drug treatment – time (h) for the control group to return to log-phase growth ([40]).

[2] = system: MRSA USA300; assay: Mouse systemic infection model; format: in vivo, mice; conditions: USA300 5 × 10^7 CFU, 150 mg/kg, tail intravenous injection at 0 and 3 h, 7-day
Description: The S. aureus-induced systemic infection model of mice (6-week-old female C57BL/6J mice) was established as previously described ([46]). […] The mice infected in the same way were treated with physiological saline as an infection control group. The mock group was not infected with S. aureus, and the 7-day mortality of the mice in each group was calculated.

[3] = system: MRSA USA300; assay: TEM analysis of cell morphology / division defects; format: cell-based, Staphylococcus aureus; conditions: 4 μg/mL (1/2× MIC), 3 h
Description: MRSA USA300 was cultured overnight, diluted (1:100) into 20 mL of Trypticase soy broth (TSB) medium, and incubated at 30°C with shaking until the optical density at 600 nm (OD600) reached 0.3. […] Bacterial cells treated with 4 μg/mL ceftaroline fosamil (1/2 of their respective MIC) served as a control group. Untreated S. aureus served as a negative control. Bacteria were collected and washed in PBS and resuspended in 4% (vol/vol) glutaraldehyde fixation overnight. The fixed samples were further processed, and morphological changes in S. aureus were observed by TEM (JSM-7900F; JEOL, Japan).

[4] = system: MRSA USA300; assay: Mouse lung infection model, bacterial load and histopathology; format: in vivo, mice; conditions: mouse pneumonia, USA300; after treatment
Description: The mice were challenged with 1 × 10^8 CFU of MRSA USA300 to assess bacterial load and pathological changes. The dose and manner of administration in mice were consistent with the survival experiments. In addition, the mice treated with ceftaroline fosamil at 75 and 37.5 mg/kg were used as control groups. At 48 h postinfection, mice were euthanized, and the left lungs were aseptically removed, weighed, and homogenized. Then, the lung tissues were homogenized and serially diluted for CFU counts. The right lungs were fixed with 10% formalin, embedded in paraffin, thin-sectioned, subjected to conventional hematoxylin and eosin (H&E) staining, and then observed using an optical microscope.

[5] = system: MRSA USA300; assay: Mouse lung infection model, survival; format: in vivo, mice; conditions: mouse pneumonia, USA300 2 × 10^8 CFU, 12-h intervals, within 72 h
Description: The animal experiments were performed using 6-week-old male C57BL/6J mice, and the mouse model of lung infection caused by MRSA USA300 was established as previously described ([43], [44]). For the survival rate, mice (10 per group) were infected with MRSA USA300 (2 × 10^8 CFU per mouse). After 2 h of infection, mice were given WYBQ-4 via subcutaneous injection and reinjected at 12-h intervals, whereas mice were treated with ceftaroline fosamil at the same doses and served as positive controls. Mice injected with only MRSA USA300 were used as a negative control. Survival of mice was recorded within 72 h, and survival rates were calculated.

[6] = system: PBP2a; conditions: cited from earlier work; for Kd: read-out: ks
[7] = system: PBP2a; conditions: as reported; cited from earlier work
[8] = molecular target: PBP2a (Staphylococcus aureus, UniProt P07944); assay: PBP2a acylation kinetics, nitrocefin competition assay; format: biochemical, MRSA
Description: Please refer to the supplemental material for the kinetic parameters of the interaction between WYBQ-4 and PBP2a and the determination of the rate of diacylation.
Supplementary Method. 1 Determination of the Kinetic Parameters for Interactions of […]
Determination of the kinetic parameters for interactions of WYBQ-4 with PBP2a The kinetic parameters of the interaction of WYBQ-4 with PBP2a were determined as previously described (1). The kinetics of the reaction between PBP2a of MRSA with WYBQ-4 was studied in homogeneous aqueous solution at 37℃ in 25 mM Hepes buffer, pH 7.0, containing 1 M NaCl and the inhibition of PBPs by β-lactams follows this kinetic scheme. […]
In this minimal scheme, E represents PBP2a, EI is the noncovalent preacylation complex, E-I is the covalent acyl-enzyme species, and P denotes the product of E-I hydrolysis and restoration of […]
The typical reactions of β-lactam could be monitored through competition with a chromophoric β-lactam, nitrocefin, or directly in certain cases by fluorescence intensity of protein. In this study, it is proposed to determine the secondary rate constants (k2/Ks) of WYBQ-4 by nitrocefin competition assay. The reaction was conducted in the above buffer, and the reaction system contained PBP2a (2.5 μM) and different concentrations of nitrocefin (20-120 μM). The reaction was carried out in a UV spectrophotometer (PERSEE T600, China) and the change in absorbance at 500 nm was […]
Apparent first-order rate constants for acylation by nitrocefin were determined by fitting the change in absorbance with time to eqn. (1):
A = A0 + ∆εn E0[(1 − exp (−kn∗ t)] + k0N0∆εn Ε0t (1) where A0 is the initial absorbance at 500 nm, ∆εn the change in molar absorption coefficient on nitrocefin hydrolysis (15900 M-1cm-1), E0 the initial enzyme concentration, N0 the initial nitrocefin concentration, kn* the (burst) pseudo-first-order rate constant for acylation of PBP2a by nitrocefin, and k0 the (line) second-order rate constant of a non-specific hydrolysis of nitrocefin in the presence of PBP2a. The second-order rate constants (kn) for acylation were calculated by fitting a plot of the apparent first-order rate constants (kn*) against the concentration of nitrocefin using a linear least-squares method.
Subsequently, nitrocefin (100 μM) was used as a reporter molecule to determine the apparent first-order rate constants for acylation of WYBQ-4 at different concentrations (0-500 μM) in competition assays. In this case, the change in absorbance at 500 nm with time was fitted to eqn.
Α = A + ∆ε E (k∗ ∕ (k∗ + k∗)(1 − exp (−(k∗ + k∗)t)) + k N ∆ε Ε t (2) […]

Chain of PBP2a (Staphylococcus aureus, UniProt P07944) (P07944 whole entry): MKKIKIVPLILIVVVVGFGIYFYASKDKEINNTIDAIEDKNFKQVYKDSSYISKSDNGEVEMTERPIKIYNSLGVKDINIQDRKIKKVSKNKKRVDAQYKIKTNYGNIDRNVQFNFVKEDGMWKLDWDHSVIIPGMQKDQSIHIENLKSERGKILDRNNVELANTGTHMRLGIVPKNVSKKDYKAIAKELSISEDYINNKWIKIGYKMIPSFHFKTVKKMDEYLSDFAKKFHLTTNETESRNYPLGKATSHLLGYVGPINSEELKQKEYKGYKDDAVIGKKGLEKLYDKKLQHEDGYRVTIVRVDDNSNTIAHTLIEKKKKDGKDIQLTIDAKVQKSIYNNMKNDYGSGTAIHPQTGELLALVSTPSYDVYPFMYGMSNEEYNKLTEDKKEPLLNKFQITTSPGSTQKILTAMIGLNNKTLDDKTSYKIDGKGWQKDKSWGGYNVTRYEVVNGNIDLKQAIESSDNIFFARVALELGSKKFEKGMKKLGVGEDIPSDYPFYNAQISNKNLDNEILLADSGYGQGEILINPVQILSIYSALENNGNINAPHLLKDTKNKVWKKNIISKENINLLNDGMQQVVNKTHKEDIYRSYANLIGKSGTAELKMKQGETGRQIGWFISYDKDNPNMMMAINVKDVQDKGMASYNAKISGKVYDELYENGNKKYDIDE

`CO[C@@]1(NC(=O)C(C(=O)O)c2ccc(O)cc2)C(=O)N2C(C(=O)O)=C(CSc3nnnn3C)CO[C@@H]21` (some centres unmarked) [moxalactam, reference compound] showed a PAE ([1]; 2× MIC) of 1 h, a PAE ([1]; 8× MIC) of 2.5 h and a survival rate [2] of 50%.
With `CCO/N=C(\C(=O)N[C@@H]1C(=O)N2C(C(=O)[O-])=C(Sc3nc(-c4cc[n+](C)cc4)cs3)CS[C@H]12)c1nsc(NP(=O)(O)O)n1` [ceftaroline fosamil, reference compound] the “Asymmetry of bacterial division (number of cells)” value [3] was 41, the “Distortion of septa (number of cells)” value [3] was 31 and the “Percentage of defective cells (asymmetry of bacterial division)” value [3] was 46.1 C %. The “Percentage of defective cells (distortion of septa)” value [3] was 34.8 B %, the “Percentage of defective cells (thin cell walls)” value [3] was 71.9 C % and the “Thin cell walls (number of cells)” value [3] was 64. The “inflammatory signs of lung tissue (H&E histopathology)” value [4] was “significantly reduced”, the survival rate ([5]; 37.5 mg/kg subcutaneous) was 26.67% and the survival rate ([5]; 75 mg/kg subcutaneous) was 76.67%.
In the case of `CCO/N=C(\C(=O)N[C@@H]1C(=O)N2C(C(=O)[O-])=C(Sc3nc(-c4cc[n+](C)cc4)cs3)CS[C@H]12)c1nsc(N)n1` [Ceftaroline], the “Percentage of defective cells (thin cell walls)” value [3] is listed as 71.9%, the k2/ks ([6]; PBP2a acylation) is listed as 4,500 ± 640 M^–1s^–1 and the k2/ks ([6]; PBP2a acylation, listed as ceftaroline) is listed as 4,500 M^–1s^–1. The Kd ([6]; PBP2a) was 20 ± 4 µM.
For `Cc1onc(-c2ccccc2)c1C(=O)N[C@@H]1C(=O)N2[C@@H]1SC(C)(C)[C@@H]2C(=O)O` [oxacillin], the “IC50 for PBP2a” value [7] is listed as 408 ± 6 µg/mL.
For `CO/N=C(\C(=O)N[C@@H]1C(=O)N2C(C(=O)[O-])=C(C[N+]3(C)CCCC3)CS[C@H]12)c1csc(N)n1` [cefepime], the survival rate [2] is given as 40%, the k2 ([6]; PBP2a) is given as 1.5 ± 0.1 s^–1 × 10^3 and the k2/ks ([6]; PBP2a) is given as 0.9 ± 0.1 M^–1s^–1. For the same molecule, the k3 ([6]; PBP2a) was 5.9 ± 0.5 s^–1 × 10^6.
For `O=C(Cc1cccs1)N[C@@H]1C(=O)N2C(C(=O)O)=C(/C=C/c3ccc([N+](=O)[O-])cc3[N+](=O)[O-])CS[C@H]12` [Nitrocefin], the “primary reaction rate constant, kn*” value ([8]; 100 μM nitrocefin, acylation of PBP2a) is listed as “approximately 0.05 s^−1”, the “secondary rate constant, k0, for the nonspecific hydrolysis of nitrocefin” value ([8]; in the presence of PBP2a) is listed as 2.3 ± 0.14 M⁻¹ s⁻¹ and the k2 ([6]; PBP2a) is listed as 3.7 ± 0.3 s^–1 × 10^3. For the same molecule, the k2/ks ([6]; PBP2a) was 19.0 ± 3.0 M^–1s^–1, the k3 ([6]; PBP2a) was 7.2 ± 0.1 s^–1 × 10^6 and the Kd ([6]; PBP2a) was 192 ± 24 µM.
In the case of `CC1(C)S[C@@H]2[C@H](NC(=O)[C@H](N)c3ccccc3)C(=O)N2[C@H]1C(=O)O` [Ampicillin], the k2 ([6]; PBP2a) is listed as 3.4 ± 0.1 s^–1 × 10^3, the k2/ks ([6]; PBP2a) is listed as 5.0 ± 1.0 M^–1s^–1 and the k3 ([6]; PBP2a) is listed as 3.2 ± 0.1 s^–1 × 10^6. The Kd ([6]; PBP2a) was 668 ± 124 µM.
In the case of `CC(C)(O/N=C(\C(=O)N[C@@H]1C(=O)N2C(C(=O)[O-])=C(C[n+]3ccccc3)CS[C@H]12)c1csc(N)n1)C(=O)O` [Ceftazidime], the k2 ([6]; PBP2a) is given as 1.0 ± 0.1 s^–1 × 10^3, the k2/ks ([6]; PBP2a) is given as 1.5 ± 0.3 M^–1s^–1 and the k3 ([6]; PBP2a) is given as 3.2 ± 0.2 s^–1 × 10^6. The Kd ([6]; PBP2a) was 671 ± 116 µM.
